This is an account of results in US20120115778A1, “Methods of Suppressing Appetite by the Administration of Antagonists of the Serotonin HTR1a or HTR2b Receptors or Inhibitors of TPH2” (The Trustees of Columbia University in the City of New York, priority 2009, published 2012).

Test [1] relates to CREB phosphorylation in arcuate neurons. Briefly: CREB phosphorylation in hypothalamic explant cultures (immunofluorescence of p-CREB). It counts as cell-based, mice. Conditions: hypothalamic explants treated with serotonin. Here is the method:
FIG. 18. (A) Western blot analysis of CREB phosphorylation and CREB in hypothalamic explants treated with PBS, serotonin (50 µM), Htr1a antagonist (LY426955) (50 µM) or serotonin (50 µM)+Htr1a antagonist (LY426955) (50 µM). (B) Analysis of CREB phosphorylation by immunofluorescence using P-CREB (S133) antibody. Immunofluorescence was performed on coronal sections of wild type (WT) hypothalamic explants previously treated with, PBS, 50 µM serotonin, 50 µM Htr1a antagonist (LY426955) or 50 µM serotonin+50 µM Htr1a antagonist (LY426955) for 30 min. The first row represents large bright field images of hypothalamic sections and the immunofluorescence analysis of the restricted hypothalamic region containing the Arcuate (Arc) neurons. Ventromedial hypothalamus (VMH) and Arcuate (Arc) are outlined with dashed. (C-D) Analysis of the appetite of CrebPomc−/− mice. (C) Measurement of the food intake (g) within 12 hours and 24 hours and (D) body weight analysis in WT, CrebPomc+/− and CrebPomc−/− mice. *(p<0.05, SEM). (E) Real-time PCR analysis of Mc4r, Pomc-1, Cart, Mch, Hypocretine and Npy expression in hypothalamus of WT and CrebPomc−/− mice. *(p<0.05, SEM).
Htr1a is a […] coupled receptor that signals through the cAMP-PKA-dependent pathway. […]

Test [2] concerns c-Fos expression in neurons of the paraventricular and arcuate nuclei. In words: Melanocortin sensitivity analysis: c-Fos expression after ICV Mc4r agonist. Format: in vivo. To be noted: ICV infusion, both WT and Tph2-/- mice. Here is the method:
A survey was carried out of the expression of genes in hypothalamic neurons that may mediate leptin regulation of appetite and the expression of which is perturbed in Tph2−/− mice. […] Two observations support the notion that the appetite phenotype of the Tph2−/− mice is caused, at least in part, by an increase in melanocortin signaling. […] Moreover, Mc4r expression was increased ˜2 fold in Htr1a−/− and ˜1.6 fold in Htr2bPomc−/− mice, but was unaffected in Htr2c−/− mice (FIG. 6J and data not shown).
To analyze changes in melanocortin sensitivity in Tph2−/− mice, MTII (2 μg) or saline was administered (ICV) into WT and Tph2−/− mice. 3 hours later mice were transcardially perfused with 4% PFA, brains were dissected and postfixed in 4% PFA overnight at 4° C. Following cryoprotection in 20% sucrose, brains were coronally sectioned at 30 μm thickness. For colorimetric cFos immunohistochemistry, sections were incubated for 16 hrs at 4° C. in rabbit anti-cFos antiserum (Ab-5; 1:3000 dilution; Calbiochem), incubated with biotinylated goat anti-rabbit IgG secondary antiserum (1:600; Vector laboratories) for 2 h at room temperature, and then incubated in avidin biotin complex (Vector Labs). Color was developed using Vector ABC kit.

The test system of test [3] is Tph2 expression. Briefly: qPCR analysis of Tph2 expression following leptin ICV infusion. To be noted: WT mice, different doses and time points. Format: in vivo. From the text: FIG. 5. Leptin inhibits bone mass accrual by inhibiting brain-derived serotonin synthesis. (A) In situ hybridization analysis and co-immunolocalization of ObRb expression in serotonergic neurons. (B-C) qPCR analysis of Tph2 expression (B) and brainstem serotonin content (C) at different ages in WT and ob/ob female mice. (D-E) qPCR analysis of Tph2 expression following intra-cerebroventricular (ICV) infusion of leptin at different doses (D) and at different time points (E) in WT mice. (F) Immunohistochemical analysis of STAT3 phosphorylation in the dorsal and median raphe following leptin ICV. Arrows indicate pSTAT3/β-Gal positive cells. (G-H) qPCR analysis of Tph2 expression (G) and brainstem serotonin content (H) in WT, ob/ob and ob/ob; Tph2+/− mice. (I) Histomorphometric analysis of vertebrae of ob/ob and ob/ob; Tph2+/− mice. (J) Representative traces of action potentials recorded from WT mice before, during and after the application of leptin (100 nM). R.M.P. −43.0 mV. (K-L) Analysis of serotonergic neuron action potential (AP) frequency in brainstem slices from WT (K) and ObRbSERT−/− (L) mice. All panels (except D, E, G, H and K) *P<0.05; **P<0.01 (Student's t test). Error bars, SEM. […]
RNA isolation, cDNA preparation and qPCR analysis was carried out following standard protocols. Genotypes of all the mice were determined by PCR. […]
In general terms: Quantitative PCR measures a nucleic acid by following its amplification.

In test [4] the test system is phosphorylation of Stat3. Briefly: Co-immunolocalization of Stat3 phosphorylation in serotonergic neurons of the brainstem after acute leptin ICV infusion. It counts as in vivo, mice. The source says:
Multiple lines of evidence indicate that it is by inhibiting BDS synthesis that leptin prevents bone mass accrual. First, ObRb, the signaling form of the leptin receptor, is expressed in β-galactosidase-positive Tph2-expressing neurons (FIG. 5A). […] Leptin inhibits synthesis of BDS, which in turn reduces, by signaling in VMH neurons, the sympathetic tone; as a result leptin prevents bone mass accrual.
Animals were anaesthetized and placed on a stereotaxic instrument (Stoelting) and the depth of anesthesia was determined by the animal's respiratory pattern and by pinching the animal's foot for reflex response. The dorsal part of the animal's head was shaved and prepped with betadine scrub, and 70% alcohol. The skin covering the head was then cut (approximately a 1 cm incision) and the calvaria exposed. A hole was drilled upon bregma using a 28-gauge needle. A 28 gauze needle canula (Brain infusion kit II, Alzet) was then implanted into the hole reaching the third cerebral ventricle according to the following coordinates: midline, −0.3 AP. 3 mm ventral (0 point Bregma). Using a Hamilton syringe, PBS or leptin (2 μg) was injected into the 3rd cerebral ventricle. The dorsal edges of the incision were coated with Bupivicaine 0.25% (<2 mg/kg), joined and closed with 2 sterile clips. […]

The test system of test [5] is serotonergic neurons. In words: Whole cell patch clamp recording in brain slices containing dorsal raphe. It counts as cell-based. To be noted: WT mice. Here is the method: The mediation of peripheral hormone action on the output of the brain relies on altered neuronal circuit activity. Interaction between neuronal circuits hinges on electric properties of neurons, particularly on the generation of action potentials. Thus, to test whether leptin directly alters serotonin output from brainstem neurons, the responses of serotonin-producing cells to leptin were analyzed with whole cell patch clamp recording in brain slices containing dorsal raphe (DR). Slices were taken from WT animals and from mice lacking ObRb selectively in Tph2-expressing neurons (ObRbSERT−/− mice). Serotonergic neurons were identified according to their unique properties (long-duration action potential, activation by norepinephrine and inhibition by serotonin itself) (Liu et al., 2002, J. Neurosci. 22:9453-9464). Since serotonergic neurons are usually quiescent in slices because of the loss of noradrenergic inputs, action potentials in these neurons were restored by application of alpha-1 adrenergic agonist phenylephrine (3 μM) in the bath (Liu et al., 2002, J. Neurosci. 22:9453-9464). […]
Whole-cell current clamp was performed to observe action potentials in DR seritonergic (5-HT) neurons with a Multiclamp 700A amplifier (Axon instrument, CA). […] Electrophysiological data were analyzed with Axograph 4.9 and plotted with Igor Pro software (WaveMetrics, Lake Oswego, Oreg.).
Background: The patch-clamp technique gives a direct electrical read-out from membranes.

As for `NCCc1c[nH]c2ccc(O)cc12` [serotonin], the CREB phosphorylation result in test [1] is “increased CREB phosphorylation in arcuate neurons”.
For the molecule MTII, in test [2], the “c-Fos expression in neurons of the paraventricular and arcuate nuclei” value is listed as “increased c-Fos expression”.
Regarding “leptin: adipocyte-derived hormone that regulates appetite and energy expenditure”, the Tph2 expression entry in test [3] is “decreased Tph2 expression in a time- and dose-dependent manner”. Also, the “phosphorylation of Stat3 in serotonergic neurons of the brainstem” value is “dramatically reduced” in test [4] (ObRbSERT-/- mice) and “increased” in test [4] (WT mice). The “action potential frequency in serotonergic neurons” value in test [5] is reported as “significantly decreased action potential frequency”.
